Measured values published in patent US9328130B2, “Method of treating organism by biologically active compounds specifically delivered into mitochondria, pharmaceutical composition required for the use of the method and a compound applicable for this purpose” (MITOTECH S.A., priority 2005, dated 2016).

Experiments:
[1] = Spontaneous oxidation of reduced (quinol) forms by air oxygen; format: physicochemical; conditions: 20 mM MOPS-KOH, pH=7.6; aerobic
Procedure: Stability of the reduced (quinols) forms of SkQ1 and MitoQ under aerobic conditions was examined by analysis of the absolute absorption spectra of these compounds in a range from 240 to 310 nm using double-beam spectrophotometer Pye Unicam SP1100, England. Quinone derivatives were reduced with sodium tetrahydroborate in the medium containing 20 mM MOPS-KOH, pH=7.6. […] The level of reduced quinones was estimated by the size of peak area using the weighing method; absolute absorption value at 267 nm (maximum absorption) was used as a control.

[2] = Oxidation of quinols by superoxide-anion radicals generated in xanthine oxidase/hypoxanthine system; format: biochemical
Text: In order to compare antioxidant activity of the reduced forms, we measured the oxidation rate of quinols by superoxide-anion radicals generated in xanthine oxidase/hypoxanthine system.

human lung fibroblasts = experiment: Protection from apoptosis caused by H2O2; format: cell-based; conditions: preincubation with 20 nM for 6 days
Procedure: Normal diploid fibroblasts from human skin and lung, human uterus carcinoma cells (HeLa cells) and human lymphoma cells (U 937 strain) were used in this experiment. Cells were cultivated in standard media (DMEM or RPMI) in the presence of 10% fetal serum at 37° C. and 5% CO2. Experiments were carried out on the cultured cells grown to 30-50% confluency. H2O2 was added once and the cells were analyzed after 18-24 h of incubation. Apoptotic death was monitored by condensation of chromatin and nucleus fragmentation after staining the cells with Hoechst 33342 (1 μg/ml, 15 min). 300-500 cells were taken into account from each preparation and the final results are the average of 3-5 independent experiments. Necrosis was determined by staining of nuclei with propidium iodide (2 μg/ml, 5 min). […] It was confirmed that apoptosis in all cases was accompanied with decrease of mitochondrial membrane potential, release of cytochrome c from mitochondria into cytoplasm and activation of caspases.

Hela cells [3] = experiment: Transmission of apoptotic signal between inducer and recipient slides; format: cell-based, human; conditions: for apoptosis at slide-recipient: TNF
Procedure: HeLa cells were used in these experiments. Cells grown on a glass slide were treated with different apoptosis-inducing agents (tumor necrosis factor (TNF), staurosporine, H2O2) for 3 h. Then the glass slide with cells (inducer) was washed to remove these reagents and placed into Petri plate to come into contact with glass slide (recipient) with cells grown in the absence of any apoptosis-inducing agent. After 16-18 h of subsequent growth and staining the cells with Hoechst 33342 as described above, apoptosis at both glass slides was analyzed.
Thus the main mediator of apoptosis signal was H2O2.

[4] = Light-dependent inactivation of gramicidin channel in model lipid membrane with phthalocyanine photosensitizer; format: biochemical; conditions: SkQ1 at 1 μM
Hela cells [5] = experiment: Necrosis after photodynamic treatment (chloromethyl-X-rosamine, green light); format: cell-based, human
Procedure: Protection from photodynamic treatment was studied using cultured HeLa cells. Cells were incubated with photosensitizer chloromethyl-X-rosamine (0.5 μM, 15 min) which was then selectively accumulated within mitochondria. Cells were photoirradiated with green light (at maximum absorption for photosensitizer of […]) through the objective of microscope Axiovert 200M (Zeiss, Germany) for 1-2 min and analyzed 5 h later. Necrosis was determined by staining of nuclei with propidium iodide (2 μg/ml, 5 min).

OXYS rats = experiment: Cataract and macular dystrophy in senescence-accelerated OXYS rats; format: in vivo, rat
Procedure: The animals were housed in cages (45*35*35 cm) and kept under standard laboratory conditions (at 22±1° C., 60% relative humidity, and natural light), provided with a standard rodent diet (PK-120-1, Ltd. ‘Laboratorsnab’, Russia), and given water ad libitum. At the age of 1.5 months after preliminary pupil dilation with 1% tropicamide ophthalmic the rats were conducted through ophthalmoscopic examination using direct ophthalmoscop “Betta”, Germany. […] We use Vitamin E for a comparison with test antioxidants. Animals received the compounds on a small piece of dried bread before a regular meal, and the control group of animals received the same piece of bread without any compound. After completing the course of antioxidants the animals were retested with ophthalmoscope. To avoid human factor in the evaluation of compound effects the researcher who conducted the ophthalmoscopic examination was not told which of the animals received antioxidants. The lens state was evaluated according to the classification system accepted in clinical practice with grades ranging from 0 to 3: score 0—the lens is clear; score 1—spotted weak cloudiness; score 2—multiple spots of cloudiness and score 3—intense cloudiness of the lens core and nucleus.

[6] = system: coronary arteries of the isolated hearts of rats; experiment: Isolated perfused rat heart, perfusion pressure during H2O2 introduction; format: in vivo
Procedure: It is known that reactive oxygen species (ROS) have regulatory or toxic effects on a cardiac muscle depending on their concentrations. When studying SkQ1 compound its ability to modulate ROS action has been found. Experiments have been carried out in the isolated hearts of rats which were given SkQ1 intravenously or with nutrition (50 μg/kg). The heart was isolated 2 hours after intravenous introduction of the compound, or after 2-week nutritional supplementation. The heart was perfused retrogradely according to a standard procedure by Krebs solution with a constant rate, and perfusion pressure (PP) characterized the tonus of coronary arteries. A spontaneous heart rate and isovolumic pressure in a left ventricular latex balloon were also recorded. These parameters were monitored at 40-minute introduction of 150 mcM H2O2, a standard ROS generator.

Hela cells [7] = experiment: Morphology of HeLa cells; format: cell-based, human
Procedure: Normal fibroblasts from the human skin and lung and HeLa cells were cultivated at low cell density (20-30% confluency). Morphometric measurements were carried out for cell area, dispersion and elongation. Cytoskeleton structures were analyzed by staining the fixed cell preparations with rhodamine falloidin (actin filaments), antibodies against tubulin (microtubules) and vinculin (surface contacts). Mobility of the cells was examined with the help of microvideo camera.

Plants cuttings = experiment: Development of higher plants under darkness stress; format: in vivo
Procedure: Plants cuttings were grown at the artificial agarized medium MS supplemented with 1 μM SkQ1 (3 plants) and with no addition of SkQ1 as a control (3 plants). Cuttings were placed into 50 ml transparent tubes and grown in climate chamber for 3 weeks at 27° C. and periodical illumination (14 h of light, 10 h of darkness). Then the plants were subjected to darkness stress, i.e. were grown in complete darkness for 7 days.

Hela cells [8] = system: Hela cells
[9] = OXYS rats age 3 months after oral course

CC1=C(C)C(=O)C(CCCCCCCCCC[P+](c2ccccc2)(c2ccccc2)c2ccccc2)=CC1=O.[Br-] [SkQ1, 2,3-dimethyl-1,4-benzoquinon-5-decyl-triphenylphosphonium bromide]
autooxidation of the reduced (quinol) form by air oxygen relative to MitoQ [1]: about three-fold lower | oxidation rate in the presence of both air oxygen and superoxide radical relative to MitoQ ([2]; FIG. 3a): about two times higher | oxidation rate of quinol form by superoxide radical relative to MitoQ ([2]; oxidation by air oxygen subtracted, FIG. 3b): very much faster than MitoQ | apoptosis among cell population (human lung fibroblasts; 100 μM H2O2): 7±3% | apoptosis among cell population (human lung fibroblasts; 200 μM H2O2): 12±5% | H2O2 concentration in the medium (Hela cells [3]; 24 hours after contact, inductor cells preincubated): 40 ± 10 nM | apoptosis at slide-recipient (Hela cells [3]; preincubation of inducer with 20 nM): 17±3% | apoptosis at slide-recipient (Hela cells [3]; preincubation of recipient cells): 16±4% | protective effect on recipient cells (Hela cells [3]; corrected for 12±3% apoptosis from emetine): ~100% | apoptosis at slide-inducer caused by TNF (Hela cells [3]; inductor cells incubated with 20 nM for 6 days): 90±5% | H2O2 concentration in the medium (Hela cells [3]; recipient cells preincubated): did not lead to decrease of H2O2 concentration | light-dependent inactivation of gramicidin [4]: completely prevents | necrotic cell death (Hela cells [5]; 1 μM added 1 h before photoirradiation): 15±5% | necrosis from photodynamic treatment (Hela cells [5]; preincubated with 20 nM for 6 days): 25±5% | 2nd stage of cataract (OXYS rats; [9]): all of them were defined as the 1st stage of cataract | 2nd stage of macular degeneration (OXYS rats; [9]): also were defined as the 1st stage of macular degeneration | changes in the macular area of the retina (OXYS rats; [9]): 38% | eyes with lens changes (OXYS rats; OXYS rats age 3 months after oral course from 1.5 to 3 months): 46% | PP change at the end of H2O2 introduction ([6]; prolonged consumption): −29±6 mmHg | maximal PP decline ([6]; prolonged consumption (2-week nutritional supplementation)): −38±5 mmHg | maximal PP decline versus initial level before H2O2 ([6]; single intravenous introduction): −43±5 mmHg | minimal perfusion pressure (PP) level ([6]; single intravenous introduction 50 μg/kg, heart isolated 2 hours later, 150 mcM H2O2): 77±2 mm Hg | amount of actin filaments (Hela cells [7]): increased | mean density of filaments (Hela cells [7]): not changed | mean area, times higher (Hela cells [7]; same treatment as fibroblasts): 2.6 times | colour of plants after darkness stress (Plants cuttings; 1 μM in MS medium, 7 days complete darkness): retained their green color | plant size in comparison to control plants (Plants cuttings; 1 μM, additional 20 days normal lighting): more than 3 times | LD50 in the presence of hydrogen peroxide (Hela cells [8]; 100 μM hydrogen peroxide): 20 µM | LD50 (concentrations at which 50% cells die) (Hela cells [8]; 2 h of incubation, no hydrogen peroxide): 20 µM
